SMILES strings stand for the structures. Active and inactive are the calls of the source. Cut-off read from the data, not from the text of the source, for most assays here: actives have a measured EC50 and inactives only a lower limit.

For orientation: EC50 means the concentration at which the effect is half-maximal. For orientation: CC50 means the concentration at which the toxic effect on the cells reaches its halfway point. The AC50 is the concentration at which the activity in the assay is half-maximal.
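Throughout, for AC50: cells exposed to compound for roughly 70 hours or longer before luminescence read.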

The first assay concerns the target T1, Heat shock factor protein 1 (Mus musculus, UniProt P38532).
T1 sequence (P38532 whole entry): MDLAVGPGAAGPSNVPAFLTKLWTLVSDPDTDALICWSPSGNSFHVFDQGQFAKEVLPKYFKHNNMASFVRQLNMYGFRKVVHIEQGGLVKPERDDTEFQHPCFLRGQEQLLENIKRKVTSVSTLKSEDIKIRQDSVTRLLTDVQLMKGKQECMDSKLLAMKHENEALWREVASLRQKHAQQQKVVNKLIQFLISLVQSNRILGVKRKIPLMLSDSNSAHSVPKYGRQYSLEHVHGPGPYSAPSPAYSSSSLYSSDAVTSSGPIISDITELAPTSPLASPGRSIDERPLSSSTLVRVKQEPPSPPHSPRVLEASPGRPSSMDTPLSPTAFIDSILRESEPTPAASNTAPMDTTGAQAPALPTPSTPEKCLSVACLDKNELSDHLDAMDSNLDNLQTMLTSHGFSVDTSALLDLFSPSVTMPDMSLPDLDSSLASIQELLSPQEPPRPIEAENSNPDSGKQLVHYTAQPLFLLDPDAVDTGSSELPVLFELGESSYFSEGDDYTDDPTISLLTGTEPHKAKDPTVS
As to the kind of experiment: HSF1 potentiators in luciferase reporter cells, confirmation, cell-based, NIH3T3, luminescence, dose retest (AID 435004).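 Note: stress induced by proteasome inhibitor MG132 added 30 min after compound; luciferase reporter driven by HSF1 response element in NIH3T3 cells; actives raise luminescence as potentiators of the MG132 stress response.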
Details: not given
The assay is classed as functional. For orientation: A reporter such as luciferase makes a cellular process visible.
On to `Cc1cc(C)c2c(NC(=O)C3CC3)nn(C)c2n1`, for which the EC50 is > 260 µM (inactive).

As to `Cn1c(=O)c(/C=C/c2ccc(F)cc2)nc2ccccc21`, the EC50 is 36.5 µM (active).

In the case of `CCCCCCNC(=O)CN=C(S)N(Cc1cccs1)C1CCCCC1`, the EC50 is > 260 µM (inactive).

Regarding `Oc1ccc2ccccc2c1CN1CCN(c2ccccc2)CC1`, the EC50 was 49.8 µM (active).

Turning to `CC(=O)c1cccc(N(CC(=O)Nc2ccc(F)cc2F)S(C)(=O)=O)c1`, the EC50 was 176 µM (active).

With `Cc1ccc(-c2[nH]ncc2C(=O)c2ccc(Br)cc2)c(O)c1`, the EC50 was > 260 µM (inactive).

Regarding `Cc1cc2c3c(c1)C1(C(=O)N3C(C)(C)CC2C)C(C#N)=C(N)Oc2cc(O)ccc21` (centres undefined), the EC50 was 54.7 µM (active).

As for `CCc1ccccc1NC(=O)CC(c1ccc(OC)cc1)n1cccc1` (centres undefined), the EC50 was > 260 µM (inactive).

For `CCOC(=O)CC1C(=O)NCCN1S(=O)(=O)c1cc(Cl)c(Cl)cc1Cl` (centres undefined), the EC50 is > 260 µM (inactive).

For `Brc1ccccc1-n1nnc(-c2cnc3ccccc3c2)n1`, the EC50 is > 260 µM (inactive).

For the compound `Cc1ccc(/C=c2\s/c(=C(/C#N)C(=O)N3CCCC3)n(Cc3ccco3)c2=O)s1`, the EC50 was 9.99 µM (active).

System in another assay: not listed separately
As to the kind of experiment: HEp-2 cell cytotoxicity, dose response, cytotoxicity control for RSV inhibitor project, HTS (AID 2410). The conditions noted are these: human respiratory syncytial virus. In kind it is functional.
`COc1cccc(-c2ccc(C#N)c(OC(=O)c3c(Cl)cccc3Cl)n2)c1`: the CC50 is 28.1 µM (active).

The next assay relates to Streptococcus sp. 'group A'. As to the kind of experiment: growth inhibition of control SK(-) GAS strain, dose response, counter-screen for streptokinase expression inhibitor project, luminescence, kanamycin, BacTiterGlo, confirmation (AID 1900). The assay is classed as functional, organism-based.
Details: not given
(In general: Counterscreens check selectivity or assay interference.)
With `COc1cccc(-n2nnc3c(=O)n(Cc4ccccc4Cl)cnc32)c1`, the EC50 is recorded as > 150 µM (not active).

For the compound `O=C(Cc1csc(NC(=O)Nc2cccc(Cl)c2)n1)NCc1cccnc1`, the EC50 is 3.19 µM (active).

Take `O=C(CSc1nc(N2CCOCC2)nc(N2CCOCC2)n1)Nc1cccc(C(F)(F)F)c1`: the EC50 is on record as > 150 µM (not active).

With `CCC(C(=O)N1CCC(N2CCCCC2)CC1)n1nc(C)c2sc3ccccc3c2c1=O` (centres undefined), the EC50 is given as > 150 µM (not active).

Turning to `CC1(C)OC(C(O)(c2ccccc2)c2ccccc2)[C@@H](C(O)(c2ccccc2)c2ccccc2)O1` (some centres undefined), the EC50 was 2.95 µM (active).

As for `Cc1ccc2nc(Nc3nc(O)cc(-c4ccccc4)n3)nc(C)c2c1`, the EC50 was 2.94 µM (active).

On to `Cc1nn(C)c(C(=O)Nc2ccc(S(=O)(=O)NC34CC5CC(CC(C5)C3)C4)cc2)c1Br`, for which the EC50 is 8.5 µM (active).

Turning to `COc1cc(/C=N/Nc2ncnc3sc4c(c23)CCC4)ccc1O`, the EC50 was 3.88 µM (active).

`C=CCn1c(O)cc(=O)nc1SC(C)CC` (centres undefined): the EC50 was 21.3 µM (active).

System in the next assay: not listed separately
As to the kind of experiment: inhibitors of intracellular T. cruzi replication, confirmation, NIH3T3 host cells, beta-gal luminescence (AID 2044).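 Note: intracellular parasites grown in NIH/3T3 mouse fibroblasts as host cells; luminescent beta-galactosidase reporter signal from transgenic T. cruzi replicating inside host cells; inhibitors lower the luminescence signal.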 The assay is classed as functional, cell-based.
Details: not given
Consider `Cc1nn(C)c(C(=O)Nc2ccc(S(=O)(=O)NC34CC5CC(CC(C5)C3)C4)cc2)c1Br`, for which the EC50 was 2.79 µM (active).

In the case of `Cc1cc2c3c(c1)C1(C(=O)N3C(C)(C)CC2C)C(C#N)=C(N)Oc2cc(O)ccc21` (centres undefined), the EC50 was 1.41 µM (active).

System in the next assay: not listed separately
As to the kind of experiment: cytotoxicity toward NIH3T3 fibroblasts, dose response, counter-screen, cell-based, ATP luminescence, mouse fibroblasts (AID 2010).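 Note: cells exposed to compound for about 90 hours before reading.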
Details: not given
The assay is classed as functional.
As for `Cc1nn(C)c(C(=O)Nc2ccc(S(=O)(=O)NC34CC5CC(CC(C5)C3)C4)cc2)c1Br`, the EC50 was > 60 µM (inconclusive).

In the case of `Cc1cc2c3c(c1)C1(C(=O)N3C(C)(C)CC2C)C(C#N)=C(N)Oc2cc(O)ccc21` (centres undefined), the EC50 is given as > 60 µM (not active).

In a further assay the test system is Streptococcus. Description: Group A Streptococcus viability loss, dose response, counter-screen for streptokinase expression inhibitor project, luminescence, BacTiterGlo (AID 1915).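 Note: potency for reduction of bacterial viability or growth.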
Details: not given
In kind it is functional, organism-based.
Take `COc1cccc(-n2nnc3c(=O)n(Cc4ccccc4Cl)cnc32)c1`: the EC50 was > 150 µM (not active).

`O=C(Cc1csc(NC(=O)Nc2cccc(Cl)c2)n1)NCc1cccnc1`: the EC50 was 13.7 µM (active).

Take `O=C(CSc1nc(N2CCOCC2)nc(N2CCOCC2)n1)Nc1cccc(C(F)(F)F)c1`: the EC50 is on record as > 150 µM (not active).

As for `CCC(C(=O)N1CCC(N2CCCCC2)CC1)n1nc(C)c2sc3ccccc3c2c1=O` (centres undefined), the EC50 is listed as > 150 µM (not active).

For `CC1(C)OC(C(O)(c2ccccc2)c2ccccc2)[C@@H](C(O)(c2ccccc2)c2ccccc2)O1` (some centres undefined), the 50% effective concentration (EC50) is listed as > 150 µM (not active).

With `Cc1ccc2nc(Nc3nc(O)cc(-c4ccccc4)n3)nc(C)c2c1`, the EC50 was 6.98 µM (active).

For the compound `Cc1nn(C)c(C(=O)Nc2ccc(S(=O)(=O)NC34CC5CC(CC(C5)C3)C4)cc2)c1Br`, the EC50 was 16.5 µM (active).

As for `COc1cc(/C=N/Nc2ncnc3sc4c(c23)CCC4)ccc1O`, the EC50 was > 150 µM (not active).

Take `C=CCn1c(O)cc(=O)nc1SC(C)CC` (centres undefined): the EC50 is listed as > 150 µM (not active).

System in a further assay: not listed separately
Description: Luminescence Cell-Based Dose Retest to Confirm Inhibitors of Cancer Stem Cells. [Related pubchem assays (depositor defined):AID2717, AID2721]. In kind it is functional. To be noted: Homo sapiens.
For the compound `COc1cccc(-c2ccc(C#N)c(OC(=O)c3c(Cl)cccc3Cl)n2)c1`, the AC50 is 3.52 µM (active).

The next assay addresses T1, Heat shock factor protein 1. Description: inhibition of MG132-induced HSE-luciferase signal, confirmation, cell-based, NIH3T3, luminescence, dose retest (AID 2382).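 Note: NIH3T3 fibroblasts with HSF1-driven luciferase reporter stressed by proteasome inhibitor MG132; luminescence from HSF1-driven luciferase expression after 8 hours of MG132 stress.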 The assay is classed as functional.
Details: not given
Consider `COc1cccc(-n2nnc3c(=O)n(Cc4ccccc4Cl)cnc32)c1`, for which the concentration for a half-maximal effect (EC50) was > 195 µM (not active).

For the next assay, the target named is T2, Streptokinase A (Streptococcus pyogenes serotype M1, UniProt P10520).
T2 sequence (P10520 whole entry): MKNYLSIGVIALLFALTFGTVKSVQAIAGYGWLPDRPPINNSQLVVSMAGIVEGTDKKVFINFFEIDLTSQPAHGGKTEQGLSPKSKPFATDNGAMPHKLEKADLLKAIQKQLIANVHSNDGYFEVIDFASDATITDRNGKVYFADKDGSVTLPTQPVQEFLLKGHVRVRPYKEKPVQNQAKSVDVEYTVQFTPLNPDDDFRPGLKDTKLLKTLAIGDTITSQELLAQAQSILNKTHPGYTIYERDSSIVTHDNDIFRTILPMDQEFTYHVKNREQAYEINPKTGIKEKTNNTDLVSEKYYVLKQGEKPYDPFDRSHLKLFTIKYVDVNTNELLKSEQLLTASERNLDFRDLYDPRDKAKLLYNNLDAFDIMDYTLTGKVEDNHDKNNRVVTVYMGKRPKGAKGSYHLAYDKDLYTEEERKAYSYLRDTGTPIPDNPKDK
As to the kind of experiment: S. pyogenes streptokinase expression inhibitors, potency, dose response, plasminogen activation absorbance, OD405 (AID 1914).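 Note: secreted streptokinase activity via plasminogen activation per viability signal from cell pellet.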 The assay is classed as functional, Streptococcus pyogenes M1 GAS.
Details: not given
Regarding `COc1cccc(-n2nnc3c(=O)n(Cc4ccccc4Cl)cnc32)c1`, the 50% effective concentration (EC50) is recorded as > 150 µM (not active).

For `O=C(Cc1csc(NC(=O)Nc2cccc(Cl)c2)n1)NCc1cccnc1`, the EC50 is reported as > 150 µM (not active).

As for `O=C(CSc1nc(N2CCOCC2)nc(N2CCOCC2)n1)Nc1cccc(C(F)(F)F)c1`, the EC50 is > 150 µM (not active).

`CCC(C(=O)N1CCC(N2CCCCC2)CC1)n1nc(C)c2sc3ccccc3c2c1=O` (centres undefined): the EC50 is > 150 µM (not active).

As to `CC1(C)OC(C(O)(c2ccccc2)c2ccccc2)[C@@H](C(O)(c2ccccc2)c2ccccc2)O1` (some centres undefined), the EC50 is 2.78 µM (active).

With `Cc1nn(C)c(C(=O)Nc2ccc(S(=O)(=O)NC34CC5CC(CC(C5)C3)C4)cc2)c1Br`, the EC50 is 16.8 µM (active).

`COc1cc(/C=N/Nc2ncnc3sc4c(c23)CCC4)ccc1O`: the EC50 was 5.06 µM (active).

As to `C=CCn1c(O)cc(=O)nc1SC(C)CC` (centres undefined), the EC50 is > 150 µM (not active).

Values taken from ChEMBL document CHEMBL1201862, “PubChem BioAssay data set” (2004).
